Results reported in the NIST ThermoML archive (doi:10.1007/s10765-009-0593-3).

Test: xn = mol fraction of the nth substance listed
Settings: 101 kPa, Liquid; for speed of sound: Pulse-echo method

CCCOCC(C)OCC(C)O (stereo not given) [1-(1-methyl-2-propoxyethoxy)-2-propanol] + CCCCNCCCC
Settings | mass density, 288.15 K [kg/m3] | mass density, 293.15 K [kg/m3] | mass density, 298.15 K [kg/m3] | mass density, 303.15 K [kg/m3] | mass density, 308.15 K [kg/m3] | speed of sound, 288.15 K [m/s] | speed of sound, 293.15 K [m/s] | speed of sound, 298.15 K [m/s] | speed of sound, 303.15 K [m/s] | speed of sound, 308.15 K [m/s]
x1 = 0.123 | 792.458 | 788.243 | 783.999 | 779.716 | 775.539 | 1291.2 | 1271.6 | 1252 | 1232.1 | 1212.2
x1 = 0.1582 | 798.993 | 794.736 | 790.406 | 786.126 | 781.949 | 1293.2 | 1273.2 | 1253.7 | 1233.9 | 1214
x1 = 0.1913 | 804.954 | 800.654 | 796.281 | 791.94 | 787.756 | 1294.9 | 1274.7 | 1255.1 | 1235.5 | 1215.5
x1 = 0.2541 | 815.956 | 811.61 | 807.16 | 802.761 | 798.492 | 1297.6 | 1277.1 | 1257.5 | 1238.1 | 1218.1
x1 = 0.3195 | 827.1 | 822.71 | 818.293 | 813.903 | 809.461 | 1299.8 | 1279.3 | 1259.6 | 1240.4 | 1220.4
x1 = 0.3623 | 834.198 | 829.803 | 825.41 | 821.074 | 816.52 | 1300.9 | 1280.5 | 1260.8 | 1241.7 | 1221.7
x1 = 0.4155 | 842.79 | 838.381 | 834.053 | 829.782 | 825.107 | 1302 | 1281.8 | 1262 | 1243 | 1223.1
x1 = 0.4543 | 848.877 | 844.447 | 840.151 | 835.948 | 831.19 | 1302.6 | 1282.7 | 1262.9 | 1243.9 | 1223.9
x1 = 0.4974 | 855.422 | 850.98 | 846.721 | 842.533 | 837.752 | 1303.2 | 1283.5 | 1263.7 | 1244.7 | 1224.7
x1 = 0.5491 | 863.031 | 858.573 | 854.308 | 850.092 | 845.325 | 1303.6 | 1284.3 | 1264.5 | 1245.6 | 1225.6
x1 = 0.6027 | 870.648 | 866.201 | 861.902 | 857.606 | 852.894 | 1304 | 1285.1 | 1265.2 | 1246.4 | 1226.4
x1 = 0.6687 | 879.855 | 875.389 | 871.011 | 866.586 | 861.99 | 1304.3 | 1285.8 | 1266 | 1247.1 | 1227.2
x1 = 0.6962 | 883.669 | 879.204 | 874.806 | 870.321 | 865.762 | 1304.4 | 1286 | 1266.3 | 1247.4 | 1227.5
x1 = 0.7504 | 891.256 | 886.786 | 882.325 | 877.785 | 873.301 | 1304.6 | 1286.4 | 1266.8 | 1248 | 1228
x1 = 0.7997 | 898.225 | 893.775 | 889.311 | 884.771 | 880.284 | 1304.8 | 1286.7 | 1267.3 | 1248.4 | 1228.5
x1 = 0.8657 | 907.649 | 903.208 | 898.805 | 894.377 | 889.838 | 1305.3 | 1287 | 1267.9 | 1249 | 1229.1
x1 = 0.8963 | 911.923 | 907.504 | 903.128 | 898.789 | 894.205 | 1305.5 | 1287.2 | 1268.2 | 1249.3 | 1229.4
x1 = 0.9589 | 920.017 | 915.65 | 911.3 | 907.024 | 902.428 | 1306.3 | 1287.4 | 1268.8 | 1250 | 1230
